Where [1] appears, read: compared with crystals of fluoxetine HCl.

These results are taken from patent US8350085B2, “Cocrystallization” (New Form Pharmaceuticals Inc., priority 2003, dated 2013).

Like-named read-outs stand apart in the source and are kept apart here.

As to `CNCCC(Oc1ccc(C(F)(F)F)cc1)c1ccccc1.Cl.O=C(O)c1ccccc1` (stereo not drawn) [fluoxetine HCl:benzoic acid, fluoxetine HCl:benzoic acid (1:1)], the dissolution rate result is on record as “relatively slow” (Example 1 cocrystal) and “lower dissolution rate” under setting [1].
On to `CNCCC(Oc1ccc(C(F)(F)F)cc1)c1ccccc1.Cl.O=C(O)CCC(=O)O` (stereo not drawn) [fluoxetine HCl:succinic acid, fluoxetine HCl:succinic acid (2:1)], for which the dissolution rate entry under setting [1] is on record as “faster dissolution rate”.
